Measurements as given in patent publication US11485733B2, “Azaquinoline derivatives” (BAYER ANIMAL HEALTH GMBH, priority 2017, dated 2022).

How the values were obtained:
C. elegans Slo-1a = C. elegans Slo-1a (Caenorhabditis elegans, UniProt Q95V25); settings: pE50 (negative decadic logarithm of EC50), CHO cells expressing C. elegans Slo-1a; voltage sensitive dye, 70 mM KCl
D. immitis Slo-1 = D. immitis Slo-1 (Dirofilaria immitis, UniProt I0DFK5); assay: D. immitis Slo-1, action at a recombinant CHO cell line (membrane potential, FLIPR); assay type: cell-based
[1] = tested on: Dirofilaria immitis microfilariae; assay: Dirofilaria immitis microfilariae (DIROIM L1) motility; settings: 72 h, read-out: EC50 (reduction of motility)
Dirofilaria immitis = Dirofilaria immitis (DIROIM L4) larval motility; settings: 72 h, read-out: EC50 (reduction of motility)
[2] = tested on: Nippostrongylus brasiliensis; assay: Nippostrongylus brasiliensis (NIPOBR) adult worms, acetylcholine esterase readout; settings: read-out: activity (reduction of AChE compared to negative control); for inhibition at 1 µg/mL: at 1 μg/ml (1 ppm); for inhibition at 10 µg/mL: at 10 μg/ml (10 ppm)
Procedure: In Vitro Assay 3: Nippostrongylus brasiliensis (NIPOBR)
Adult Nippostrongylus brasiliensis were washed with saline buffer containing 100 U/ml penicillin, 0.1 mg/ml streptomycin and 2.5 μg/ml amphotericin B. Test compounds were dissolved in DMSO and worms were incubated in medium in a final concentration of 10 μg/ml (10 ppm) respectively 1 μg/ml (1 ppm). An aliquot of the medium was used to determine the acetylcholine esterase activity in comparison to a negative control. The principle of measuring acetylcholine esterase as readout for anthelmintic activity was described in Rapson et al (1986) and Rapson et al (1987).

D. immitis Slo-1, sequence (I0DFK5 1-1119): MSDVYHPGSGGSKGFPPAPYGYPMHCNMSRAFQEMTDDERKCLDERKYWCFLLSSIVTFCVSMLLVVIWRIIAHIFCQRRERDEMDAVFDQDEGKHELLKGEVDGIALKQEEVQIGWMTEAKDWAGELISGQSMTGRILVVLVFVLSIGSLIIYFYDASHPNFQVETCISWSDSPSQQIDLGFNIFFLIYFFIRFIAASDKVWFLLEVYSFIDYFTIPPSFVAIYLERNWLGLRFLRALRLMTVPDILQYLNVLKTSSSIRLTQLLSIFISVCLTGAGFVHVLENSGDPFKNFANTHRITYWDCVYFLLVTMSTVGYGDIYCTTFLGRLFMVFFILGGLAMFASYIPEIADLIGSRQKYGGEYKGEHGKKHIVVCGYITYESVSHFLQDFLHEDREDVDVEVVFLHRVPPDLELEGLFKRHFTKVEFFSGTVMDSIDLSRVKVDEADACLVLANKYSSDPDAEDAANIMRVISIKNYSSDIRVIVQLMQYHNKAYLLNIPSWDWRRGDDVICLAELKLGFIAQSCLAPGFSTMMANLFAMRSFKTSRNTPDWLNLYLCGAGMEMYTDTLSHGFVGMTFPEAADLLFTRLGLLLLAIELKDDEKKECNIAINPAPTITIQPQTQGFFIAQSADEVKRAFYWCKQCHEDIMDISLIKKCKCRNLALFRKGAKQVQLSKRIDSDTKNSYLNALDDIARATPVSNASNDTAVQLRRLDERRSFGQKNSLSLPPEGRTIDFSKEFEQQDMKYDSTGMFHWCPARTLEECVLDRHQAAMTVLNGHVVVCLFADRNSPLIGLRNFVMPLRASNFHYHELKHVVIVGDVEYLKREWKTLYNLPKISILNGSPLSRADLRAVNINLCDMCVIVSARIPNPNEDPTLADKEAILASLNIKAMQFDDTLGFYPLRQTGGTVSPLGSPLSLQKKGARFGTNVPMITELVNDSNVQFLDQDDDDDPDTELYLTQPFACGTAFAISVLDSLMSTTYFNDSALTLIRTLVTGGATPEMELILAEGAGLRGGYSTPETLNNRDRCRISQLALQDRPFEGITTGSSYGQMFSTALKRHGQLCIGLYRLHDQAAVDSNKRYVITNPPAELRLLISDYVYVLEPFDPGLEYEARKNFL
C. elegans Slo-1a, sequence (Q95V25 whole entry): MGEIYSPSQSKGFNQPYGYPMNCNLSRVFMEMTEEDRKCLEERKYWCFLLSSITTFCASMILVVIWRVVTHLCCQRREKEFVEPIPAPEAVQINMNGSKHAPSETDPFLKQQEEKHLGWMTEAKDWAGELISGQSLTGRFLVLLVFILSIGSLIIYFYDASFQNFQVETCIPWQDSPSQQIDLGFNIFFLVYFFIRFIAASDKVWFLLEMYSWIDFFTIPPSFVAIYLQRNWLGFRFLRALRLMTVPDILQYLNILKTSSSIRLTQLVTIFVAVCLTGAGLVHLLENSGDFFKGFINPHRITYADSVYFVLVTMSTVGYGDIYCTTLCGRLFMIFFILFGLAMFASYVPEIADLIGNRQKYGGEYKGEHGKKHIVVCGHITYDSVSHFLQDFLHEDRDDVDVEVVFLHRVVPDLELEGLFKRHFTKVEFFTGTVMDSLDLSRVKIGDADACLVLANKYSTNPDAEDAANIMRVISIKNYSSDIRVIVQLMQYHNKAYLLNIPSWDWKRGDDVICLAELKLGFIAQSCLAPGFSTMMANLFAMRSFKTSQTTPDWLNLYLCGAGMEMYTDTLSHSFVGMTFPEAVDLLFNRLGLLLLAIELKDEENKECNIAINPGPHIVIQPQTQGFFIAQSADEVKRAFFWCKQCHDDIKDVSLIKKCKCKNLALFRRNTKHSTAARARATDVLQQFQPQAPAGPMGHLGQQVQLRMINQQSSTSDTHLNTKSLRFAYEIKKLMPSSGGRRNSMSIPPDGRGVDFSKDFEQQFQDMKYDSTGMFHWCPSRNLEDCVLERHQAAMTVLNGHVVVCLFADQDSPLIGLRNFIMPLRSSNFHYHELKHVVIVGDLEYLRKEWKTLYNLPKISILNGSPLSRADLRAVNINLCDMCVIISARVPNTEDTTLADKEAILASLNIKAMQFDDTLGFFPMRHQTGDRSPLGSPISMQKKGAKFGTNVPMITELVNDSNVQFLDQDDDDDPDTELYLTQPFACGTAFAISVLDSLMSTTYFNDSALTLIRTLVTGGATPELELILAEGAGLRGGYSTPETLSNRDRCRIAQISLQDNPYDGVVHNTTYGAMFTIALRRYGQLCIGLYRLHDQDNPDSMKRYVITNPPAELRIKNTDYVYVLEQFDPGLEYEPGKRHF

Row | SMILES | EC50 (C. elegans Slo-1a) [nM] | EC50 (D. immitis Slo-1) [nM] | EC50 [1] [µg/mL] | EC50 (Dirofilaria immitis) [µg/mL] | inhibition at 1 µg/mL [2] [%] | inhibition at 10 µg/mL [2] [%]
1 | O=C(N[C@H]1CCOc2ccccc21)c1cnc2c(-c3cccc(Cl)c3Cl)nccc2c1 [Example T1-15, 8-(2,3-dichlorophenyl)-N-[(4S)-3,4-dihydro-2H-chromen-4-yl]-1,7-naphthyridine-3-carboxamide] | 31.6 to 316 |  |  |  |  | 
2 | CN(C)c1c(C(=O)N[C@H]2CCOc3ccccc32)cnc2c(-c3cc(F)cc(F)c3F)c(Cl)cnc12 [Example T3-5, 7-chloro-N-[(4S)-3,4-dihydro-2H-1-benzopyran-4-yl]-4-(dimethylamino)-8-(2,3,5-trifluorophenyl)-1,5-naphthyridine-3-carboxamide] |  | 3.16 to 31.6 | < 0.1 | < 0.1 |  | 
3 | CN(C)c1c(C(=O)N[C@H]2CCOc3ccccc32)cnc2c(-c3cccc(Cl)c3Cl)c(Cl)cnc12 [Example T3-8, 7-chloro-8-(2,3-dichlorophenyl)-N-[(4S)-3,4-dihydro-2H-1-benzopyran-4-yl]-4-(dimethylamino)-1,5-naphthyridine-3-carboxamide] |  | 3.16 to 31.6 | < 0.1 | < 0.1 | > 80 | > 80
4 | COc1ncc2c(N(C)C)c(C(=O)N[C@H]3CCOc4ccccc43)cnc2c1-c1cc(Cl)cc(Cl)c1 [Example T2-8, 8-(3,5-dichlorophenyl)-N-[(4S)-3,4-dihydro-2H-1-benzopyran-4-yl]-4-(dimethylamino)-7-methoxy-1,6-naphthyridine-3-carboxamide] |  | 3.16 to 31.6 | < 0.1 | < 0.1 | > 80 | > 80
5 | CN(C)c1c(C(=O)N[C@H]2CCOc3ccccc32)cnc2c(-c3cccc(Cl)c3Cl)cncc12 [Example T2-2, 8-(2,3-Dichlorophenyl)-N-[(4S)-3,4-dihydro-2H-chromen-4-yl]-4-(dimethylamino)-1,6-naphthyridine-3-carboxamide] | 3.16 to 31.6 |  | < 0.1 |  |  | > 80
6 | COc1ncc(-c2cc(Cl)cc(Cl)c2)c2ncc(C(=O)N[C@H]3CCOc4ccccc43)c(N3CCOCC3)c12 [Example T2-10, 8-(3,5-dichlorophenyl)-N-[(4S)-3,4-dihydro-2H-1-benzopyran-4-yl]-5-methoxy-4-(morpholin-4-yl)-1,6-naphthyridine-3-carboxamide] |  | 31.6 to 316 | < 0.1 | < 0.1 | > 80 | > 80
7 | O=C(N[C@H]1CCOc2ccccc21)c1cnc2c(-c3cc(F)cc(F)c3F)ncc(F)c2c1N1CCOCC1 [Example T1-8, N-[(4S)-3,4-dihydro-2H-1-benzopyran-4-yl]-5-fluoro-4-(morpholin-4-yl)-8-(2,3,5-trifluorophenyl)-1,7-naphthyridine-3-carboxamide] |  | 31.6 to 316 | < 0.1 | < 0.1 | > 80 | > 80
8 | CN(C)c1c(C(=O)N[C@H]2CCOc3ccccc32)cnc2c(-c3cc(Cl)cc(Cl)c3)c(F)cnc12 [Example T3-11, 8-(3,5-dichlorophenyl)-N-[(4S)-3,4-dihydro-2H-1-benzopyran-4-yl]-4-(dimethylamino)-7-fluoro-1,5-naphthyridine-3-carboxamide] |  | 3.16 to 31.6 | < 0.1 | < 0.1 | > 80 | > 80
9 | CN(C)c1c(C(=O)N[C@H]2CCOc3ccccc32)cnc2c(-c3cc(Cl)cc(Cl)c3)c(Cl)cnc12 [Example T3-7, 7-chloro-8-(3,5-dichlorophenyl)-N-[(4S)-3,4-dihydro-2H-1-benzopyran-4-yl]-4-(dimethylamino)-1,5-naphthyridine-3-carboxamide] |  | 3.16 to 31.6 | < 0.1 | < 0.1 |  | 
10 | COc1cnc2c(N(C)C)c(C(=O)N[C@H]3CCOc4ccccc43)cnc2c1-c1cccc(Cl)c1Cl [Example T3-12, 8-(2,3-dichlorophenyl)-N-[(4S)-3,4-dihydro-2H-1-benzopyran-4-yl]-4-(dimethylamino)-7-methoxy-1,5-naphthyridine-3-carboxamide] |  | 3.16 to 31.6 | < 0.1 | < 0.1 | > 80 | > 80
11 | CN(C)c1c(C(=O)N[C@H]2CCOc3ccccc32)nnc2c(-c3ccc(F)c(F)c3)cccc12 [Example T5-4, 8-(3,4-Difluorophenyl)-N-[(4S)-3,4-dihydro-2H-chromen-4-yl]-4-(dimethylamino)cinnoline-3-carboxamide] | 31.6 to 316 | 31.6 to 316 | < 0.1 |  |  | 
12 | COc1cnc2c(N(C)C)c(C(=O)N[C@H]3CCOc4ccccc43)cnc2c1-c1cc(Cl)cc(Cl)c1 [Example T3-10, 8-(3,5-dichlorophenyl)-N-[(4S)-3,4-dihydro-2H-1-benzopyran-4-yl]-4-(dimethylamino)-7-methoxy-1,5-naphthyridine-3-carboxamide] |  | 3.16 to 31.6 | < 0.1 | < 0.1 | > 80 | > 80
13 | COc1cnc(-c2cc(F)cc(F)c2F)c2ncc(C(=O)N[C@H]3CCOc4ccccc43)c(N(C)C)c12 [Example T1-13, N-[(4S)-3,4-dihydro-2H-1-benzopyran-4-yl]-4-(dimethylamino)-5-methoxy-8-(2,3,5-trifluorophenyl)-1,7-naphthyridine-3-carboxamide] |  | 31.6 to 316 | < 0.1 | < 0.1 | > 80 | > 80
14 | COc1ncc2c(N(C)C)c(C(=O)N[C@H]3CCOc4ccccc43)cnc2c1-c1cccc(Cl)c1Cl [Example T2-7, 8-(2,3-dichlorophenyl)-N-[(4S)-3,4-dihydro-2H-1-benzopyran-4-yl]-4-(dimethylamino)-7-methoxy-1,6-naphthyridine-3-carboxamide] |  | 3.16 to 31.6 | < 0.1 | < 0.1 |  | 
15 | COc1ncc2c(N3CCOCC3)c(C(=O)N[C@H]3CCOc4ccccc43)cnc2c1-c1cc(Cl)cc(Cl)c1 [Example T2-9, 8-(3,5-dichlorophenyl)-N-[(4S)-3,4-dihydro-2H-1-benzopyran-4-yl]-7-methoxy-4-(morpholin-4-yl)-1,6-naphthyridine-3-carboxamide] |  | 3.16 to 31.6 | < 0.1 | < 0.1 | > 80 | > 80
16 | O=C(N[C@H]1CCOc2ccccc21)c1cnc2c(-c3cc(F)cc(F)c3F)c(Cl)cnc2c1N1CCOCC1 [Example T3-6, 7-chloro-N-[(4S)-3,4-dihydro-2H-1-benzopyran-4-yl]-4-(morpholin-4-yl)-8-(2,3,5-trifluorophenyl)-1,5-naphthyridine-3-carboxamide] |  | 3.16 to 31.6 | < 0.1 | < 0.1 |  | 
17 | COc1ncc2c(N3CCOCC3)c(C(=O)N[C@H]3CCOc4ccccc43)cnc2c1-c1cccc(Cl)c1Cl [Example T2-6, 8-(2,3-dichlorophenyl)-N-[(4S)-3,4-dihydro-2H-1-benzopyran-4-yl]-7-methoxy-4-(morpholin-4-yl)-1,6-naphthyridine-3-carboxamide] |  | 3.16 to 31.6 | < 0.1 | < 0.1 |  | 
18 | COc1cnc2c(N3CCOCC3)c(C(=O)N[C@H]3CCOc4ccccc43)cnc2c1-c1cc(F)cc(F)c1F [Example T3-16, N-[(4S)-3,4-dihydro-2H-1-benzopyran-4-yl]-7-methoxy-4-(morpholin-4-yl)-8-(2,3,5-trifluorophenyl)-1,5-naphthyridine-3-carboxamide] |  | 3.16 to 31.6 | < 0.1 | < 0.1 | > 80 | > 80
19 | CN(C)c1c(C(=O)N[C@H]2CCOc3ccccc32)cnc2c(-c3cc(F)cc(F)c3F)c(F)cnc12 [Example T3-19, N-[(4S)-3,4-dihydro-2H-1-benzopyran-4-yl]-4-(dimethylamino)-7-fluoro-8-(2,3,5-trifluorophenyl)-1,5-naphthyridine-3-carboxamide] |  | 3.16 to 31.6 | < 0.1 | < 0.1 | > 80 | > 80
20 | O=C(N[C@H]1CCOc2ccccc21)c1cnc2c(-c3cccc(Cl)c3Cl)c(Cl)cnc2c1N1CCOCC1 [Example T3-9, 7-chloro-8-(2,3-dichlorophenyl)-N-[(4S)-3,4-dihydro-2H-1-benzopyran-4-yl]-4-(morpholin-4-yl)-1,5-naphthyridine-3-carboxamide] |  | 3.16 to 31.6 | < 0.1 | < 0.1 | > 80 | > 80
21 | O=C(N[C@H]1CCOc2ccccc21)c1cnc2c(-c3cccc(Cl)c3Cl)c(F)cnc2c1N1CCOCC1 [Example T3-18, 8-(2,3-dichlorophneyl)-N-[(4S)-3,4-dihydro-2H-1-benzopyran-4-yl]-7-fluoro-4-(morpholin-4-yl)-1,5-naphthyridine-3-carboxamide] |  | 3.16 to 31.6 | < 0.1 | < 0.1 | > 80 | > 80
22 | COc1cnc2c(N3CCOCC3)c(C(=O)N[C@H]3CCOc4ccccc43)cnc2c1-c1cccc(Cl)c1Cl [Example T3-14, 8-(2,3-dichlorophenyl)-N-[(4S)-3,4-dihydro-2H-1-benzopyran-4-yl]-7-methoxy-4-(morpholin-4-yl)-1,5-naphthyridine-3-carboxamide] |  | 3.16 to 31.6 | < 0.1 | < 0.1 | > 80 | > 80
